Test results reported in patent publication US10676442B2, “Salt derivative of tetrahydroisoquinoline and crystalline thereof and preparation method therefore and application thereof” (CHINA STATE INSTITUTE OF PHARMACEUTICAL INDUSTRY, priority 2016, dated 2020).
Values after ≈ are worked out from the molar mass of the structure shown. Counter-ions that a name gives are not always drawn. Like-named read-outs stand apart in the source and are kept apart here.

Key:
Type in all cases: physicochemical
[1] = Measurement of solubility in water by liquid chromatography; conditions: for Solubility in water / solubility at 12 h: saturated solution shaken 12 hrs at 30° C., HPLC, in water; for Solubility in water compared to SIPI-409 and SIPI-409 hydrochloride: in words; for solubility at 12 h: thermodynamic from solid
Method: Solubility of SIPI-409 and of the salt derivatives thereof in water was measured by liquid chromatography.
Main steps: preparing SIPI-409 standards at the concentrations of 5 ? g/mL, 10 ? g/mL, 50 ? g/mL, 100 ? g/mL, 200 ? g/mL and establishing the standard curve of these preparations.
Chromatography Conditions:
Chromatography column: Phenomenex Luna 5u C18(2) 100 A 4.6×200 mm
Detection wave-length: 210 nm
Mobile phase: acetonitrile/phosphate buffer (0.68 g/L monopotassium phosphate, pH was adjusted to 3.0 using triethylamine)=68/32
Column temperature: 30° C.
Load volume: 10 ? L
Residence time: around 6.3 min
Sample treatment: the test samples were prepared into saturated solutions in water (suspensions) and shaken for 12 hrs at 30° C., which were further ultrasonicated for 30 s, followed by filtration and preparation of serial dilutions as appropriate, which were then analyzed by HPLC.

[2] = Humidity stability investigation (92.5% RH, XRPD); conditions: 92.5% RH (saturated KNO3), XRPD on day 0, 5, 10, 20 and 30
Method: The phosphate, nicotinate, glycolate, oxalate, orotate, benzenesulfonate and sulfate of SIPI-409 were kept in a 92.5% RH (saturated KNO3) atomosphere. XRPD measurements were carried out on samples taken out on day 0, 5, 10, 20 and 30.

[3] = Light stability investigation (light incubator, XRPD); conditions: XRPD on day 0, 5, 10, 20 and 30
Method: The phosphate, nicotinate, glycolate, oxalate, orotate, benzenesulfonate and sulfate of SIPI-409 were placed in a light incubator. XRPD measurements were carried out on samples taken out on day 0, 5, 10, 20 and 30.

[4] = Temperature stability investigation (60° C. oven, XRPD); conditions: oven at 60° C., XRPD on day 0, 5, 10, 20 and 30
Method: Phosphate, nicotinate, glycolate, oxalate, orotate, benzenesulfonate and sulfate of SIPI-409 were placed in an oven at 60° C. XRPD measurements were carried out on samples taken out on day 0, 5, 10, 20 and 30.

[5] = Hygroscopicity investigation (dynamic vapor sorption); conditions: dynamic vapor sorption analyzer
From the text: Hygroscopicity was further investigated by placing the phosphate, nicotinate, glycolate, oxalate, orotate, benzenesulfonate and sulfate of SIPI-409 in a dynamic vapor sorption (DVS) analyzer.

| Structure (SMILES) | Solubility in water [1] [µg/mL] | Stability 92.5% RH [2] | Stability Light [3] | Stability 60° C. [4] | DVS Max Hygroscopicity [5] [%] | also measured |
| --- | --- | --- | --- | --- | --- | --- |
| COc1cc2c(cc1OCc1ccccc1)C(Cc1cccc(NS(C)(=O)=O)c1)NCC2 (centres unmarked) [SIPI-409 Ethionate, 1-(3-methanesulfonamidobenzyl)-6-methoxy,7-benzyloxy-1,2,3,4-tetrahydroisoquinoline] | 440 (≈ 972 µM) |  |  |  |  |  |
| COc1cc2c(cc1OCc1ccccc1)C(Cc1cccc(NS(C)(=O)=O)c1)NCC2 (centres unmarked) [SIPI-409, 1-(3-methanesulfonamidobenzyl)-6-methoxy,7-benzyloxy-1,2,3,4-tetrahydroisoquinoline, reference compound] | 70 (≈ 155 µM) |  |  |  |  |  |
| COc1cc2c(cc1OCc1ccccc1)C(Cc1cccc(NS(C)(=O)=O)c1)NCC2 (centres unmarked) [SIPI-409 Fumarate, 1-(3-methanesulfonamidobenzyl)-6-methoxy,7-benzyloxy-1,2,3,4-tetrahydroisoquinoline] | 120 |  |  |  |  |  |
| COc1cc2c(cc1OCc1ccccc1)C(Cc1cccc(NS(C)(=O)=O)c1)NCC2 (centres unmarked) [SIPI-409 Glycolate, 1-(3-methanesulfonamidobenzyl)-6-methoxy,7-benzyloxy-1,2,3,4-tetrahydroisoquinoline] | 3210 (≈ 7090 µM) | Stable | Stable | Stable | 0.8 | Solubility in water compared to SIPI-409 and SIPI-409 hydrochloride [1]: significantly increased solubility in water |
| COc1cc2c(cc1OCc1ccccc1)C(Cc1cccc(NS(C)(=O)=O)c1)NCC2 (centres unmarked) [SIPI-409 Sulfate, 1-(3-methanesulfonamidobenzyl)-6-methoxy,7-benzyloxy-1,2,3,4-tetrahydroisoquinoline] | 5760 | Hygroscopic | Stable | Stable | 5.2 | Solubility in water compared to SIPI-409 and SIPI-409 hydrochloride [1]: significantly increased solubility in water |
| COc1cc2c(cc1OCc1ccccc1)C(Cc1cccc(NS(C)(=O)=O)c1)NCC2 (centres unmarked) [SIPI-409 Tartarate, 1-(3-methanesulfonamidobenzyl)-6-methoxy,7-benzyloxy-1,2,3,4-tetrahydroisoquinoline] | 220 (≈ 486 µM) |  |  |  |  |  |
| COc1cc2c(cc1OCc1ccccc1)C(Cc1cccc(NS(C)(=O)=O)c1)NCC2 (centres unmarked) [SIPI-409 Benzenesulfonate, 1-(3-methanesulfonamidobenzyl)-6-methoxy,7-benzyloxy-1,2,3,4-tetrahydroisoquinoline] |  | Hygroscopic | Stable | Stable | 4.5 | solubility at 12 h ([1]; read-out: Solubility): 3210 µM; solubility at 12 h ([1]; read-out: Solubility in water): 1960 µg/mL |
| COc1cc2c(cc1OCc1ccccc1)C(Cc1cccc(NS(C)(=O)=O)c1)NCC2 (centres unmarked) [SIPI-409 Succinate, 1-(3-methanesulfonamidobenzyl)-6-methoxy,7-benzyloxy-1,2,3,4-tetrahydroisoquinoline] | 160 |  |  |  |  |  |
| COc1cc2c(cc1OCc1ccccc1)C(Cc1cccc(NS(C)(=O)=O)c1)NCC2 (centres unmarked) [SIPI-409 Hydrobromate, 1-(3-methanesulfonamidobenzyl)-6-methoxy,7-benzyloxy-1,2,3,4-tetrahydroisoquinoline] | 440 (≈ 972 µM) |  |  |  |  |  |
| COc1cc2c(cc1OCc1ccccc1)C(Cc1cccc(NS(C)(=O)=O)c1)NCC2 (racemic) [SIPI-409 Malate, 1-(3-methanesulfonamidobenzyl)-6-methoxy,7-benzyloxy-1,2,3,4-tetrahydroisoquinoline] |  |  |  |  |  | solubility at 12 h ([1]; water, 30 °C, water, read-out: Solubility): 650 µM; solubility at 12 h ([1]; water, 30 °C, water, read-out: Solubility in water): 380 µg/mL |
